Results from the supplement of paper PMC10307832.

Legend:
Experiment in all cases: relative viability (nuclei count vs DMSO), 5 days (fraction); higher = more cells survive
[1] = compound: C=CC(=O)Nc1cc(-n2c(=O)ccc3cnc4ccc(-c5ccc(NS(C)(=O)=O)cc5)cc4c32)ccc1C [BMX-IN-1] + COc1cccc2cc(-c3nc([C@H]4CC[C@H](C(=O)O)CC4)n4ncnc(N)c34)[nH]c12 [OSI-027] (partner 0.5 µM)
How it was run: (§1)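 Cells from lung cancer lines were seeded into 1536-well plates and, one day later, dosed by pin tool. Treatments were either a single drug or a fixed dose of an anchor drug with five library-drug doses (not always all listed) in √10 steps. After 5 days, nuclei were stained in a one-step fixation (final 0.05% Triton X-100, 1% formaldehyde, 1 ug/ml Hoechst) and counted on 4× images, and relative viability is the treated-to-vehicle nuclei ratio, as the median of duplicate plates.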

[2] = compound: C=CC(=O)Nc1cc(-n2c(=O)ccc3cnc4ccc(-c5ccc(NS(C)(=O)=O)cc5)cc4c32)ccc1C [BMX-IN-1] + CCNC(=O)c1noc(-c2cc(C(C)C)c(O)cc2O)c1-c1ccc(CN2CCOCC2)cc1 [Luminespib] (partner 0.01 µM)
How it was run: as §1

[3] = compound: C=CC(=O)N1CCC[C@@H](n2nc(-c3ccc(Oc4ccccc4)cc3)c3c(N)ncnc32)C1 [Ibrutinib] + Cc1cc(Nc2cc(N3CCN(C)CC3)nc(Sc3ccc(NC(=O)C4CC4)cc3)n2)n[nH]1 [Tozasertib] (partner 0.1 µM)
How it was run: as §1

[4] = compound: C=CC(=O)Nc1cc(-n2c(=O)ccc3cnc4ccc(-c5ccc(NS(C)(=O)=O)cc5)cc4c32)ccc1C [BMX-IN-1] + Cc1cc(Nc2cc(N3CCN(C)CC3)nc(Sc3ccc(NC(=O)C4CC4)cc3)n2)n[nH]1 [Tozasertib] (partner 0.1 µM)
How it was run: as §1

Cell Line	relative viability ([1]; first compound 0.02 µM)	relative viability ([1]; first compound 0.2 µM)	relative viability ([1]; first compound 0.6325 µM)	relative viability ([1]; first compound 2 µM)	relative viability ([2]; first compound 0.02 µM)	relative viability ([2]; first compound 0.2 µM)	relative viability ([2]; first compound 0.6325 µM)	relative viability ([2]; first compound 2 µM)	relative viability ([3]; first compound 0.005 µM)	relative viability ([3]; first compound 0.05 µM)	relative viability ([3]; first compound 0.1581 µM)	relative viability ([3]; first compound 0.5 µM)	relative viability ([4]; first compound 0.02 µM)	relative viability ([4]; first compound 0.2 µM)	relative viability ([4]; first compound 0.6325 µM)	relative viability ([4]; first compound 2 µM)	relative viability ([3]; first compound 0.01581 µM)
NCI-H358	0.942	0.79	1.04	0.75	0.444	0.308	0.405	0.327	0.103	0.0879	0.12	0.0917	0.112	0.108	0.104	0.11	–
NCI-H441	0.708	0.753	0.649	0.68	0.384	0.428	0.56	0.279	0.596	0.801	0.73	0.809	0.58	0.873	0.761	0.846	0.64
NCI-H460	1.46	1.16	1.16	0.691	0.0361	0.0362	0.0299	0.0331	0.716	0.519	0.409	0.494	0.525	0.796	0.531	0.569	0.321
NCI-H520	0.253	0.238	0.279	0.282	0.243	0.231	0.243	0.218	0.428	0.427	0.381	0.39	0.494	0.451	0.43	0.429	0.341
NCI-H522	0.673	0.74	0.696	0.732	1.24	1.26	1.1	1.19	0.503	0.476	0.55	0.46	0.573	0.666	0.605	0.532	0.521
